Measurements: US5770625A, “Butyryl-tyrosinyl spermine, analogs thereof and methods of preparing and using same” (priority 1994, dated 1998)
Entries after “also recorded” stand apart in the source; their conditions may differ. Read-outs that look alike come from different tables or passages of the source.

Test system: postsynaptic QUIS-R of locust leg muscle
Experiment: Antagonism of neurally-evoked twitch contraction of locust retractor unguis nerve-muscle preparation
Design: species or system Schistocerca gregaria
Conditions: for IC50: read-out: IC50
Excerpt: Electrophysiological studies. The metathoracic retractor unguis nerve-muscle preparation of the locust Schistocerca gregaria was dissected and mounted in a small Perspex bath as described previously (21). The pharmacological activity on the locust nerve muscle preparation, using reduction in neurally evoked twitch amplitude as the measure of activity. Ten fractions were pharmacologically active. […] Further purification of this fraction by reverse-phase HPLC gave four peaks (FIG. 2B), the most pharmacologically was in the major peak (hatched FIG. 2B) . This fraction gave 1.1 mg of toxin as amorphous powder.
The retractor unguis muscle and its nerve were dissected from the metathoracic legs of adult, female locusts (Schistocerca gregaria) and mounted in a Perspex perfusion chamber as described by Usherwood and Machili (21) and Bateman, et al. (14). The muscle was stretched to maximal body length and attached at its tendon or apodeme to a Grass FT 10-strain gauge by a short length of nylon thread. The volume of the muscle bath was about 0.5 ml and its contents could be exchanged within 1 sec. The preparation was perfused continuously at the rate of 5-10 ml min^-1 (except during the application of toxin (see below)) with standard locust saline of the following composition (mM): NaCl, 180; KCl, 10; CaCl2, 2; Hepes, 10; buffered to pH 6.8. The retractor unguis muscle is innervated by two excitatory motoneurons (30) and an inhibitory motoneuron (19,32), but the influence of the latter on the responsiveness of the muscle is slight. Maximal stimulation of the retractor unguis nerve at 0.2 Hz produced a series of twitch contractions of constant amplitude, which were maintained for many hours in good preparations. The test compounds were kept at -20° C. They were dissolved in locust saline on the day of the assay and tested at room temperature. The compounds were applied by pipette to a nerve-muscle preparation such that the contents of the perfusion bath were completely replaced by the test solution. Exposure to the test compound lasted 20 min. Because of the limited availability of some of the compounds, the preparation was not perfused during this period. However, the amplitude of the retractor unguis muscle twitch rarely changed by more than 5-10% over a 20 minute period. During application of the test solutions the stimulation frequency was raised to 0.6 Hz for brief periods to test for stimulus frequency-dependent effects on twitch amplitude (31,37). Dose-inhibition data were obtained by testing the effects, on single retractor unguis muscle preparations, of a range of concentrations of the test compounds. Each concentration of the respective samples was tested at least thee times, and each compound was assayed usually over a 100-fold concentration range (a total of 7-10 concentrations). The standard deviations for twitch inhibition for any given concentration of a toxin rarely exceed 10%. Those compounds for which the deviation was greater than this are identified in Tables 1-7. There was some variation in the potency of PhTX-343 and the test compounds between nerve-muscle preparations. In order to compensate for this, the following procedure was adopted: PhTX-343 was assayed at a variety of concentrations on eight retractor unguis nerve-muscle preparations to give a cumulative dose-inhibition relationship for this toxin. The concentration of PhTX-343 which reduced the twitch contraction by 50% (IC50) was then determined by fitting a curve to the data using the following equation: [formula] where: [T]= toxin concentration, I= % inhibition, Imax =maximum inhibition= 100% and n' represents the Hill slope coefficient. […] The ratio of the actual reduction in twitch amplitude obtained with this single concentration of PhTX-343 and the 50% reduction that was anticipated from the cumulative dose-inhibition relationship for this toxin, was then used as a factor to normalize the data for the test compound. […]

[1] = Table 7, bis-acyl spermine analogues
[2] = Table 7, bis-acyl spermine analogues, relative to PhTX-343
[3] = Table 3, region C modifications
[4] = Table 3, relative to PhTX-343 = 1.0
[5] = Table 1, region A modifications, 20 min exposure, normalized with PhTX-343, ** SD < 30%
[6] = Table 1, relative to PhTX-343 = 1.0
[7] = Table 4, terminal amino group modifications, * SD < 20%
[8] = Table 4, relative to PhTX-343 = 1.0
[9] = Table 5, modifications to more than one region
[10] = Table 2, region B modifications, * SD < 20%
[11] = Table 2, relative to PhTX-343 = 1.0

`CCCC(=O)NCCCNCCCCNCCCNC(=O)CCC` [Compound 50] was tested, and the “potency compared with PhTX-343 or other analogues (in words)” value was “low potencies”, the IC50 [1] was 2300 µM and the Relative Potency [2] was 0.1.
`CCCCCCC(=O)N[C@@H](Cc1ccc(O)cc1)C(=O)NCCCNCCCCNCCCN` [drawing 43] was tested, and the IC50 [3] was 10 µM and the “Relative Potency” value [4] was 2.7.
For `CCCC(=O)N[C@@H](Cc1ccc(O)cc1)C(=O)NCCCCNCCCN` [drawing 24], the IC50 [5] was 39 µM and the “Relative Potency” value [6] was 0.6.
`CCCCCCCCCC(=O)NCCCNCCCCNCCCNC(=O)CCCCCCCCC` [drawing 82] showed an IC50 [1] of 23 µM and a Relative Potency [2] of 1.0.
In the case of `CCCC(=O)N[C@@H](Cc1ccc(O)cc1)C(=O)NCCCNCCCCNCCCNC(C)=O` [drawing 58], the IC50 [7] is reported as 300 µM and the “Relative Potency” value [8] is reported as 0.08.
`CCCC(=O)N[C@@H](Cc1ccc(O)cc1)C(N)=O` [Compound 6, PhTX-0] was tested, and the “potency compared with PhTX-343 or other analogues (in words)” value was “slightly more active than PhTX-4”.
In the case of `CCCC(=O)N[C@@H](Cc1cc(I)c(O)c(I)c1)C(=O)NCCCNCCCCNCCCNC(=O)[C@@H](N)CCCCN` [drawing 65], the IC50 [9] is reported as 1.7 µM and the “Relative Potency” value (Table 5, relative to PhTX-343) is reported as 14.
With `CCCC(=O)N[C@@H](Cc1ccc(O)cc1)C(=O)NCCCNCCCCNCCCNC(=O)CN` [Compound 33] the “potency compared with PhTX-343 or other analogues (in words)” value was “potency was reduced”.
With `CCCC(=O)NCC(=O)NCCCNCCCCNCCCN` [drawing 38] the IC50 [10] was 130 µM and the “Relative Potency” value [11] was 0.2.
In the case of `NCCCNCCCCNCCCNC(=O)[C@H](Cc1ccc(O)cc1)NC(=O)Cc1ccccc1` [drawing 48], the IC50 [3] is reported as 12 µM and the “Relative Potency” value [4] is reported as 0.5.
In the case of `CCCC(=O)N[C@@H](Cc1ccc(O)cc1)C(=O)NCCCNCCCCNCCCN` [drawing 57], the IC50 [7] is reported as 23 µM and the “Relative Potency” value [8] is reported as 1.0.
`CCCC(=O)N[C@@H](Cc1ccc(O)cc1)C(=O)NCCCCN` [drawing 25] was tested, and the IC50 [5] was 2000 µM and the “Relative Potency” value [6] was 0.01.
In the case of `CCCC(=O)N[C@@H](Cc1ccc(O)cc1)C(=O)NCCCNCCCCNCCCNC(=O)C(N)CCCCNC(=O)C(N)CCCCN` (stereo partly shown) [drawing 63], the IC50 [7] is reported as 11 µM and the “Relative Potency” value [8] is reported as 2.1.
For `CCCC(=O)N[C@@H](Cc1ccc(O)cc1)C(=O)NCCCNCCCCNCCCN` [drawing 41], the IC50 [3] was 23 µM and the “Relative Potency” value [4] was 1.0.
With `CCCC(=O)N[C@@H](Cc1ccc(O)cc1)C(=O)NCCCNCCCCNCCCNC(=O)CCCN` [Compound 34] the “potency compared with PhTX-343 or other analogues (in words)” value was “potency was reduced”.
`[N-]=[N+]=Nc1ccc(C(=O)N[C@@H](Cc2cc(I)c(O)c(I)c2)C(=O)NCCCNCCCCNCCCNC(=O)[C@@H](N)CCCCN)cc1` [drawing 68] was tested, and the IC50 [9] was 1.8 µM and the “Relative Potency” value (Table 5, relative to PhTX-343) was 13.
With `CCCC(=O)N[C@@H](Cc1ccc(OCc2ccccc2)cc1)C(=O)NCCCNCCCCNCCCN` [drawing 34] the IC50 [10] was 24 µM and the “Relative Potency” value [11] was 1.0.
For `NCCCNCCCCNCCCNC(=O)[C@H](Cc1ccc(O)cc1)NC(=O)/C=C/c1ccccc1` [Compound 25], the “potency compared with PhTX-343 or other analogues (in words)” value was “greatly increased potency”.
With `[N-]=[N+]=C(C(=O)NCCCC(=O)N[C@@H](Cc1ccc(O)cc1)C(=O)NCCCNCCCCNCCCN)C(F)(F)F` [Compound 27] the “potency compared with PhTX-343 or other analogues (in words)” value was “only weakly active”.
`CCCC(=O)N[C@@H](Cc1cc(I)c(O)c(I)c1)C(=O)NCCCNCCCCNCCCN` [drawing 35] was tested, and the IC50 [10] was 5.3 µM and the “Relative Potency” value [11] was 4.4.
For `CCCC(=O)NCCCNCCCCNCCCN`, the “IC50 (M)” value (Table 7, mono-acyl spermine analogues) was “agonist”.
In the case of `[N-]=[N+]=C(C(=O)NCCCC(=O)N[C@@H](Cc1ccc(O)cc1)C(=O)NCCCNCCCCNCCCN)C(F)(F)F` [drawing 51], the IC50 [3] is reported as 290 µM and the “Relative Potency” value [4] is reported as 0.1.
In the case of `CCCC(=O)N[C@@H](Cc1ccc(O)cc1)C(=O)NCCCNCCCCNCCCNC(=O)C(N)CCCCNC(=O)C(N)CCCCN` (stereo partly shown) [Compound 37], the “potency compared with PhTX-343 or other analogues (in words)” value is reported as “more active than compound 35”.
In the case of `NCCCNCCCCNCCCNC(=O)[C@H](Cc1ccc(O)cc1)NC(=O)c1ccccc1` [Compound 23], the “potency compared with PhTX-343 or other analogues (in words)” value is reported as “equipotent with the C10 analogue 20”.
`CCCC(=O)N[C@@H](Cc1ccc(O)cc1)C(=O)NCCCCNCC(C)CNCCCN` (stereo partly shown) [drawing 27] was tested, and the IC50 [5] was 40 µM and the “Relative Potency” value [6] was 0.6.
For `CCCCCCCCCC(=O)N[C@@H](Cc1ccc(O)cc1)C(=O)NCCCNCCCCNCCCNC(=O)[C@H](Cc1ccc(O)cc1)NC(=O)CCCCCCCCC`, the “IC50 (M)” value (Table 6, bis analogues of PhTX-343) was “insol”.
For `CCCC(=O)N[C@@H](Cc1ccc(O)cc1)C(=O)NCCCNCCCNCCCCN` [drawing 23], the IC50 [5] was 15 µM and the “Relative Potency” value [6] was 1.5.
`[N-]=[N+]=Nc1ccc(C(=O)N[C@@H](Cc2ccc(O)cc2)C(=O)NCCCNCCCCNCCCN)cc1` [drawing 50] was tested, and the IC50 [3] was 4.2 µM and the “Relative Potency” value [4] was 5.5.
In the case of `CCCC(=O)N[C@@H](Cc1ccc(OCc2ccccc2)cc1)C(=O)NCCCNCCCCNCCCN` [Compound 12, N-butyryl-O-benzyl-L-tyrosine-spermineamide], the “potency compared with PhTX-343 or other analogues (in words)” value is reported as “unchanged potencies”.
In the case of `CCCC(=O)N[C@@H](Cc1ccc(O)cc1)C(=O)NCCCNCCCCNCCCNC(=O)CCCN` [drawing 60], the IC50 [7] is reported as 68 µM and the “Relative Potency” value [8] is reported as 0.3.
`C/C=C/C=C/C(=O)N[C@@H](Cc1ccc(O)cc1)C(=O)NCCCNCCCCNCCCN` [Compound 21] was tested, and the “potency compared with PhTX-343 or other analogues (in words)” value was “very potent”.
`CCCCCCC(=O)NCCCNCCCCNCCCNC(=O)CCCCCC` was tested, and the “IC50 (M)” value [1] was “agonist”.
`CCCC(=O)N[C@@H](Cc1ccc(O)cc1)C(=O)NCCCNCCCCNCCCN` [drawing 31] was tested, and the IC50 [10] was 23 µM and the “Relative Potency” value [11] was 1.0.
`[N-]=[N+]=Nc1ccc(C(=O)N[C@@H](Cc2cc(I)c(O)c(I)c2)C(=O)NCCCNCCCCNCCCNC(=O)[C@@H](N)CCCCN)cc1` [Compound 41, N- (.rho.-azidobenzamide)-di-iodo-L-tyrosyl-spermine-L-lysine-triamide] was tested, and the “potency compared with PhTX-343 or other analogues (in words)” value was “more potent than the latter”.
`NCCCNCCCCNCCCNC(=O)[C@H](Cc1ccc(O)cc1)NC(=O)CCCCCNC(=O)CCCCC1SCC2NC(=O)NC21` (stereo partly shown) was tested, and the “IC50 (M)” value [3] was “insol”.
With `CCCC(=O)N[C@@H](Cc1ccc(O)cc1)C(=O)NCCCNCCCCNCCCNC(=O)CN` [drawing 59] the IC50 [7] was 100 µM and the “Relative Potency” value [8] was 0.2.
In the case of `CCCC(=O)N[C@@H](Cc1ccc(O)cc1)C(=O)NCCC[N+](C)(C)CCCC[N+](C)(C)CCC[N+](C)(C)C` [drawing 29], the IC50 [5] is reported as 130 µM and the “Relative Potency” value [6] is reported as 0.2.
`CCCC(=O)N[C@@H](Cc1ccc(O)cc1)C(=O)NCCCNCCCCNCCCNC(=O)C(N)CCCCN` (stereo partly shown) [Compound 35] was tested, and the “potency compared with PhTX-343 or other analogues (in words)” value was “increased potency”.
`CCCCCCCCCC(=O)NCCCNCCCCNCCCNC(=O)CCCCCCCCC` [Compound 52, bis-C10 -spermine] was tested, and the “potency compared with PhTX-343 or other analogues (in words)” value was “as active as PhTX-343; also recorded: relatively high potencies”.
For `CCCC(=O)N[C@@H](CC(C)C)C(=O)NCCCNCCCCNCCCN` [Compound 14], the “potency compared with PhTX-343 or other analogues (in words)” value was “unchanged”.
For `NCCCNCCCCNCCCNC(=O)[C@H](Cc1ccc(O)cc1)NC(=O)CCCNc1ccc([N+](=O)[O-])cc1[N+](=O)[O-]`, the IC50 [3] was 53 µM and the “Relative Potency” value [4] was 0.4.
For `CCCC(=O)N[C@@H](Cc1ccc(O)cc1)C(N)=O` [drawing 26], the IC50 [5] was 500 µM and the “Relative Potency” value [6] was 0.05.
`CCCC(=O)N[C@@H](C)C(=O)NCCCNCCCCNCCCN` [Compound 15] was tested, and the “potency compared with PhTX-343 or other analogues (in words)” value was “slightly reduced”.
For `CCCC(=O)N[C@@H](Cc1ccc(O)cc1)C(=O)NCCCNCCCCNCCCNC(C)=O` [Compound 32], the “potency compared with PhTX-343 or other analogues (in words)” value was “low potency”.
